Where “and” joins values, the source holds several entries; their conditions need not be identical. Equal entries are not always repeated. Bridge positions count the residues as written; N and C are the ends. Peptide text beside a SMILES is read from it. I, II: the chains in the order shown.
Experiments:
[1] = tested on: N. meningitidis strain used for LPS production; assay: Serum bactericidal activity (SBA) of sera of immunized rabbits; format: in vivo; settings: individual rabbits
Protocol: Immunization of three adult New-Zealand rabbits is performed with 100 μg of LPS-peptide complex by intramuscular (IM) and subcutaneous (SC) routes (2×0.5 mL and 5×0.2 mL respectively) in the presence of adjuvant. They receive three injections at 3-week interval; the first one with complete Freund adjuvant (FA), the second and third ones with incomplete Freund adjuvant. They are bled two weeks after the last injection. A control group is immunized with the peptide with adjuvant (71 μg, equivalent to the amount of the peptide in 100 μg of LPS-peptide complex) using the same protocol.
The bactericidal activity of the serum (SBA) samples is evaluated against the N. meningitidis strain used for LPS production as described in Example 5 in the presence of baby rabbit serum as exogenous source of complement.
Sera are heat-inactivated during 30 min at 56° C. In the wells of a 96-well microplate, heat-inactivated sera are then twofold serially diluted (10 times) in Dulbecco's phosphate buffered saline containing Ca^++ and Mg^++ (volume per well: 50 μl).
Twenty five μl of a log phase culture of N. meningitidis grown in Mueller-Hinton broth (4.10^3 CFU/mL) and 25 μl of baby rabbit serum are added to each well. The plate is incubated one hour at 37° C., under shaking.
Fifty μl of the mixture from each well are plated onto Mueller-Hinton agar. Petri dishes are incubated overnight at +37° C. in a 10% CO2 atmosphere.
In each experiment, controls include (i) bacteria and the complement source without antibodies (complement control), (ii) bacteria and heat-inactivated complement, and (iii) bacteria and heat-inactivated complement, in the presence of antibodies.
Bactericidal titre is reported as the highest reciprocal serum dilution at which ≧50% killing of bacteria is observed as compared to the complement control.

[2] = tested on: IL6 release; assay: In vivo cytokine release in sera of CD1 mice (ELISA): IL6; design: species or system mouse
Protocol: (§1) In order to evaluate to which extent the LPS-peptide complex can attenuate LPS-induced toxic effects, the effect of the LPS-peptide complex on the release of pro-inflammatory cytokines is monitored (assessed) in in vitro and in vivo assays. • In vivo: cytokine (IL6 and TNFα) releases in the sera of mice immunized either with LPS or LPS-peptide complex are compared by ELISA. Blood samples are recovered 90 min after SC immunization, which is the optimal time for the release of those cytokines. C3H/HeOuJ, TLR4-/-, C3H/HeN and CD1 mouse strains are tested. The two first are sensitive neither to LPS nor LPS-peptide complex. The third and fourth are both found LPS-sensitive. CD1 mice are found more LPS-peptide complex-sensitive than the others and therefore selected for further experiments retaining the most severe conditions. • In vitro:cytokine (IL6, IL8 and TNFα) releases from human whole blood cell cultures stimulated for 24h at 37° C., with different concentrations of LPS or LPS-peptide complex are compared. 5.4.1. In Vivo Assay
(§2) CD1 mice are administered subcutaneously (SC) (i) either 10 μg of LPS or (ii) 10 μg of LPS-peptide complex. They are bled 90 minutes after injection. IL6 and TNFα releases are measured in the sera by ELISA. […]
(§3) The reaction is stopped by adding 100 μl of 1 M H3PO4 per well. Plates are read at 450 nm.

[3] = tested on: TNFα release; assay: In vivo cytokine release in sera of CD1 mice (ELISA): TNFα; design: species or system mouse
Protocol: as §1, §2, §3

[4] = 10 μg SC, sera 90 minutes after injection

**Q.** Which results are given for CC(C)C[C@@H]1NC(=O)[C@H](CC(C)C)NC(=O)[C@H](CC(C)C)NC(=O)[C@H](Cc2ccccc2)NC(=O)[C@H](CCCCN)NC(=O)[C@@H](NC(=O)[C@H](CCCCN)NC(=O)[C@@H](NC(=O)[C@@H](N)CCCCN)[C@@H](C)O)CSSC[C@@H](C(=O)O)NC(=O)[C@H](CC(C)C)NC(=O)[C@H](CC(C)C)NC(=O)[C@H](CC(C)C)NC(=O)[C@H](Cc2ccccc2)NC(=O)[C@H](CCCCN)NC(=O)[C@@H](NC(=O)[C@H](CCCCN)NC(=O)[C@@H](NC(=O)[C@@H](N)CCCCN)[C@@H](C)O)CSSC[C@@H](C(=O)O)NC1=O [Peptide, NH2-Lys-Thr-Lys-Cys1-Lys-Phe-Leu-Leu-Leu-Cys2-COOH] (I: H-KTKCKFLLLC-OH / II: H-KTKCKFLLLC-OH; disulfide I:4-II:10, I:10-II:4)?
**A.** SBA titre, Pre-immunized sera ([1]; baseline before immunization, baby rabbit complement): 4 and 16; SBA titre, Post-dose 3 immunized sera ([1]; 100 μg complex or 71 μg peptide IM+SC with Freund adjuvant, three injections): 16; SBA titre, Post-dose 3 immunized sera adsorbed on LPS ([1]; sera adsorbed on LPS): 4 and 8; IL6 release, Mean (pg/mL) n = 6 (log) [2, 4]: <1 pg/mL (log); Induction of IL6 (in words) ([2]; peptide alone): does not induce; TNFα release, Mean (pg/mL) n = 6 (log) [3, 4]: <1 pg/mL (log); Induction of TNFα (in words) ([3]; peptide alone): does not induce
